Test results taken from patent publication US8435576B2, “Use of cocoa polyphenols for treating a prostate hyperplasia, a specific cocoa extract and applications” (Barry Callebaut AG, priority 2005, dated 2013).

What was measured:
Type in all cases: in vivo, Wistar rats
leukocyte free radicals = assay: Free radicals in the blood after heat stroke (pholasine chemiluminescence); conditions: after heat stroke 40° C., 120 min; 14 days oral CPE1 22.9, CPE2 24.3, vitamin E 200 mg/kg/day
Description: (§1) After each daily administration of the product, the rats have free access to standard food granules.
(§2) On the 16th day, after fasting over night, the conscious rats of the various groups, with the exception of those of the vehicle group, are exposed to a heat stroke by placing them in a temperature-controlled chamber at 40° C. with a relative humidity of 50% for 120 minutes. The rats expressed their normal heat-regulating behavior. Immediately after the heat stroke, the rats with a rectal temperature of between 41.5° C. and 42° C. are included in the study. The rats returned to their cage at 22° C.
On the 16th day, 500 μl of blood samples were collected from the tail vein of 12 rats of each group, into tubes containing heparin to check the increase in free radicals after exposure to the heat stroke. On the basis of the chemiluminescence of pholasine, a photo-protein from the marine mollusc Pholas dactylus, the production of leukocyte free radicals was measured using a kit (Knight Scientific, Cell Activation Test Kits for Whole Blood with Adjuvant-K) by activation of the NADPH oxydase complex in diluted blood (In CytoTox laboratory, Nancy, France).

[1] = Body weight during 14-day oral treatment before heat stroke
Description: Eight male rats of Wistar/Han IGS strain (Charles River Laboratories, 69-St-Germain sur l'Arbresle—France) weighing 300 to 320 g are used. On receipt, the rats are housed, four to a cage, in 48×27×20 cm polycarbonate cages (U.A.R., 91-Epinay-Sur-Orge, France) in a controlled environment (50±5% humidity; temperature 22±1° C.; lighting from 20:00 h to 08:00 h, i.e. an inverted lightness/darkness cycle: 12 h/12 h).
The rats are weighed each day for the fourteen days of the treatment in order to determine their body weight change.

[2] = system: cognitive performances after heat stroke; assay: Light extinction test after heat stroke; conditions: day 18, after heat stroke
Description: as §1, §2
Three days after exposure to the heat stroke, on day 18 (D18), the rats are tested for the preventive antioxidant effects of the two CPEs on the learning performances, by using the light extinction test. The experimental device consists of a brightly lit cage (50×40×37 cm). The level of lighting in the test cage is 1200 lux.
During the test session, the rats are placed individually in the cage for 20 minutes to learn how to control the light environment.

[3] = system: cognitive performances after heat stroke; assay: Morris water labyrinth test after heat stroke
Description: as §1, §2
The Morris water labyrinth (1984) makes it possible to test the capacity for spatial orientation and the processes of learning and memorization. On the 20th and 21st days (D20 and D21), the rats are tested in the water labyrinth device to evaluate the spatial learning performances and their long-term memory. The experimental procedure consists in training rats, on the 20th day, to find a hidden platform (10 mm below the surface of the water) at a fixed point in the water tank (150 cm in diameter) in a series of five tests starting from the same starting point.
During the first test, the platform is placed against the wall of the tank. During the second test, the platform is placed 5 cm from the wall of the tank to allow the rats to find the platform easily. During the following three tests, the platform is placed 10 cm from the wall of the tank. Each test is followed by a 30-second rest period on the platform.
On the 21st day, the platform is placed at a distance from the wall of the tank in the same place as during the session on the 20th day and the long-term memory of the rats is tested in a single test.
The variable recorded in the water tank is the latency time required to get out of the water and reach the platform serving as a refuge arranged in the basin.

## Cc1c(C)c2c(c(C)c1O)CC[C@@](C)(CCC[C@H](C)CCC[C@H](C)CCCC(C)C)O2 [Vitamin E, α-tocopherol]
Leukocyte free radicals
  Free radical content in the plasma on the 16th day (Mean ± SEM): 311.15 ± 20.56 mV
[1]; Day 1, oral daily CPE1 22.9, CPE2 24.3, vitamin E 200 mg/kg
  Body weight: 320.9 ± 15.4 g
[1]; Day 3
  Body weight: 328.9 ± 15.8 g
[1]; Day 4
  Body weight: 330.6 ± 15.7 g
[1]; Day 5
  Body weight: 333.9 ± 16.5 g
[1]; Day 6
  Body weight: 336.6 ± 15.9 g
[1]; Day 7
  Body weight: 339.4 ± 17.3 g
[1]; Day 8
  Body weight: 342.1 ± 17.2 g
[1]; Day 11
  Body weight: 351.6 ± 18.0 g
[1]; Day 12
  Body weight: 354.6 ± 18.8 g
[2]
  Discrimination of the levers: pressed the active lever more than the inactive lever
  Number of active lever presses (ALP) (mean ± SEM): 27.28 ± 3.54
  Number of inactive lever presses (ILP) (mean ± SEM): 17.60 ± 2.47
[2]; n = 16/group
  Total number of lever presses (Mean ± SEM): 42.38 ± 5.76
[3]; Day 20, Test 1
  Latency for reaching the platform (Mean ± SEM): 51.75 ± 6.45 s
[3]; Day 20, Test 2
  Latency for reaching the platform (Mean ± SEM): 25.38 ± 4.94 s
[3]; Day 20, Test 3
  Latency for reaching the platform (Mean ± SEM): 26.44 ± 5.20 s
[3]; Day 20, Test 4
  Latency for reaching the platform (Mean ± SEM): 17.75 ± 2.44 s
[3]; Day 20, Test 5
  Latency for reaching the platform (Mean ± SEM): 13.56 ± 1.37 s
[3]; Day 21, Test 6
  Latency for reaching the platform (Mean ± SEM): 14.69 ± 2.22 s
